Source: patent US20060217345A1, “Beta-L-nucleosides and use thereof as pharmaceutical agents for the treatment of viral diseases” (priority 2003, published 2006)
Where two headings read alike, the source gives them in different places.

Legend:
[1] = system: HBV replication in HepG2 2.2.15 cells; test: Antiviral activity: reduction of extracellular HBV DNA in HepG2 2.2.15 cells; assay type: cell-based, hepatitis B virus; settings: read-out: ED50 values (concentration resulting in 50% reduction of HBV DNA in the medium of the cells)
Description: The antiviral efficacy of the compounds of at least one embodiment was investigated on HepG2 2.2.15 cells, a human hepatoblastoma cell line which has the replication-competent HBV genome stably integrated therein and produces infectious progeny viruses in a productive manner (Sells et al., Proc Natl Acad Sci USA 1987, 84: 1005-1009).
The above cells were cultured under standardized conditions as specified by Korba and Gerin, and the amount of extracellular viral DNA was determined (Korba et al., Antiviral Res 1992, 19: 55-70).
Following passaging, the HepG2 2.2.15 cells were seeded at a density of about 60% in 12-well plates and cultured to confluence in 10% FBS Dulbecco MEM. Thereafter, the medium was changed to 2% FBS, and the cells were cultured for another 24 hours.
After another change of medium, the cells were treated with varying concentrations of compounds according to at least one embodiment. Every 24 hours the compounds were re-added together with the medium. […]
Following treatment of the culture supernatants with proteinase K, the extracellular viral DNA was amplified by means of PCR using the following primers (forward: 5′-CTCCAGTTCAGGAACAGTAAACCC-3′; reverse: 5′-TTGTGAGCTCAGAAAGGCCTTGTAAGTTGGCG-3′. The PCR products were separated on 1% agarose, stained with ethidium bromide and quantified using a Fluor-S™ Multimager (Biorad).
For calibration of the PCR reaction, serial dilutions of the pUC19 HBV and pTHBV plasmids with known genome equivalents (GE) were used, resulting in a lower detection limit of about 10^3 GE and a linearity between 10^3 and 10^5 GE.

[2] = biological target: T1, HBV DNA polymerase (Hepatitis B virus genotype D subtype ayw, UniProt P03156); test: Inhibition of endogenous HBV DNA polymerase activity (3H-dCTP incorporation); assay type: biochemical; settings: nucleoside triphosphates; purified virus particles from patient serum; 0.7 μM dCTP; two-hour incubation at 37° C.; read-out: IC50 (50% inhibition of the HBV DNA polymerase activity)
T1 construct: 30 μl of polymerase batch included about 2-4×10^8 purified virus particles (lysed beforehand); from tissue; host or cells: Serum of patients infected with hepatitis B virus (Charité, Berlin); virus particles purified through a saccharose gradient and lysed
Description: Synthesis and purification of the triphosphates of β-L-5-methylcytidine nucleosides were effected according to well-known methods (Yoshikawa et al., Tetradedron Lett 1967, 50: 5065-5068; Hoard et Ott, J Am Chem Soc 1965, 87: 1785-1788).
To determine the endogenous HBV DNA polymerase activity, about 60 ml of serum from patients with hepatitis B virus infections from Charité, Berlin (>10^7 HBV particles/ml), was centrifuged at 3000 rpm, followed by sedimentation of the virus particles at 25,000 g, 60 min, taking up in 7 ml of TKM buffer (50 mM Tris-HCl, pH 7.5, 50 mM KCl, 5 mM MgCl2), and centrifugation through a saccharose gradient (0.3 M, 0.6 M, 0.9 M saccharose in 10 ml of TKM buffer each time) at 25,000 g for 20 hours. The purified virus sediment was suspended in 400 μl of TKM using ultrasound, divided in aliquots and frozen at −80° C. (Davies et al., Antiviral Res 1996, 30: 133-145).
30 μl of polymerase batch included about 2-4×10^8 purified virus particles (lysed beforehand in 6% β-mercaptoethanol, 10% Igepal for 15 min at room temperature), 42 mM Tris-HCl, (pH 7.5), 34 mM MgCl2, 340 mM KCl, 22 mM β-mercaptoethanol, 0.4% Igepal, 70 μM TTP, dATP, dGTP and 1 μCi ^3H-dCTP (=0.7 μM dCTP) (Matthes et al., Antimicrob Agents & Chemoth 1991, 35: 1254-1257) and varying concentrations of β-L-5-methylcytidine nucleoside triphosphates.
Following a two-hour incubation at 37° C., 20 μl of each batch was placed on paper filter, washed 5 times with 5% trichloroacetic acid and 0.1% Na pyrophosphate, and the ^3H-dCTP incorporated in the HBV DNA was subsequently measured in a Liquid Scintillation Counter.
Using the concentration-dependent inhibition curves of HBV DNA synthesis, the concentration of β-L-5-methylcytidine nucleoside triphosphates resulting in 50% inhibition of the HBV DNA polymerase activity was determined. The IC50 values are illustrated in Table 2.

[3] = system: HBV replication; settings: 5-modified β-L-cytosine nucleosides; compares with compounds with non-modified bases; cited from earlier work
[4] = system: HBV infections; settings: treatment of HBV infections; cited from earlier work
[5] = system: HepG2 cells; test: Cytotoxicity: inhibition of proliferation of HepG2 cells; assay type: cell-based, human; settings: Hep G2 cells, Dulbecco MEM, incubated for two days
Description: (§1) To this end, established cells of a human myeloid leukemia (HL-60) in RPMI medium, and the above-mentioned HepG2 cells in Dulbecco MEM, respectively, were incubated for two days using varying concentrations of compounds, and the proliferation rate of the cells was subsequently determined. The data was used to determine the concentration of compounds resulting in 50% inhibition of proliferation (CD50).

[6] = system: HL-60 cells; test: Cytotoxicity: inhibition of proliferation of HL-60 cells; assay type: cell-based, human; settings: RPMI medium, incubated for two days
Description: as §1

[7] = HepG2 2.2.15 cells, extracellular HBV DNA by PCR, after 9 days of incubation

T1 sequence (P03156 whole entry): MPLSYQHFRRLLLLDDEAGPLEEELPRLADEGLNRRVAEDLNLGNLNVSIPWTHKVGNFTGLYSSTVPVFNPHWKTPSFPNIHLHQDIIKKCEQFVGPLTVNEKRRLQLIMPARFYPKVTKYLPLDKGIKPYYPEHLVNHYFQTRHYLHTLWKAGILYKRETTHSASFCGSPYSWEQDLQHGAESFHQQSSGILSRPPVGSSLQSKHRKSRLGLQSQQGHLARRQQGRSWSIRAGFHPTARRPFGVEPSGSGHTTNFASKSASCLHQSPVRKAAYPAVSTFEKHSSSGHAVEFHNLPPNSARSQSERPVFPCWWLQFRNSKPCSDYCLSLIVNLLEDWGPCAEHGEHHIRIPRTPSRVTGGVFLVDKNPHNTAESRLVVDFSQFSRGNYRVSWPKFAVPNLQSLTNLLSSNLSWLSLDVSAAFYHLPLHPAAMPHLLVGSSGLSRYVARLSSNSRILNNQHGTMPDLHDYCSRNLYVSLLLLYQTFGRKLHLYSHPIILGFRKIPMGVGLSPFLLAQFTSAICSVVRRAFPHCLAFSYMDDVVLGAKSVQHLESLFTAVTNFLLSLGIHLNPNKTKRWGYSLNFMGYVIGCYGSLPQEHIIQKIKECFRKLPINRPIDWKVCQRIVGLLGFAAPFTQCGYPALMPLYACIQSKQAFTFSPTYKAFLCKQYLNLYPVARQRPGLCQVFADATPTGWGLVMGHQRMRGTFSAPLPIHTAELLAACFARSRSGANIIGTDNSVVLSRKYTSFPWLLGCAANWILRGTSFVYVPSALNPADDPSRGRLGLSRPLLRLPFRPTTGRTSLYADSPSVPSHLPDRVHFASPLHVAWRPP

Cc1cn([C@@H]2CC[C@H](CO)O2)c(=O)nc1N [β-L-ddMetC, β-L-2′,3′-dideoxy-5-methylcytidine]
EC50 [1, 7]: > 20000 nM

Cc1cn([C@@H]2C[C@@H](N=[N+]=[N-])[C@H](COP(=O)(O)OP(=O)(O)OP(=O)(O)O)O2)c(=O)nc1N [Triphosphate of β-L-N3MetCdR]
IC50 [2]: 800 nM

Nc1ccn([C@@H]2CS[C@H](CO)O2)c(=O)n1 [3TC, β-L-2′,3′-dideoxy-3′-thiacytidine, reference compound]
EC50 ([1]; Hepatitis B virus, 216 h, HepG2 2.2.15 cells, extracellular HBV DNA by PCR, after 9 days of incubation): 100 to 200 nM

Nc1nc(=O)n(C2OC(CO)C=C2F)cc1F [L-2′F-ddeFC, β-L-2′,3′-dideoxy-2′,3′-didehydro-2′-fluoro-5-fluorocytidine]
effect with respect to HBV replication, as described in the literature [3]: equally effective

Nc1ccn([C@@H]2CS[C@H](COP(=O)(O)OP(=O)(O)OP(=O)(O)O)O2)c(=O)n1 [Triphosphate of 3TC, reference compound]
IC50 [2]: 300 nM

α-interferon
proportion of the patients in whom it is effective [4]: about 33%

Cc1cn([C@@H]2C[C@@H](N=[N+]=[N-])[C@H](CO)O2)c(=O)nc1N [β-L-N3MetCdR, β-L-3′-azido-2′,3′-dideoxy-5-methylcytidine]
EC50 [1, 7]: 350 to 950 nM | Cytotoxicity (CD50), concentration resulting in 50% inhibition of proliferation [5]: >2000 | Cytotoxicity (CD50), concentration resulting in 50% inhibition of proliferation [6]: 2000

Nc1nc(=O)n([C@H]2O[C@@H](CO)[C@H](O)[C@H]2O)cc1F [L-AraFC, β-L-arabinofuranosyl-5-fluorocytosine]
effect with respect to HBV replication, as described in the literature [3]: no effect

Cc1cn([C@@H]2C=C[C@H](COP(=O)(O)OP(=O)(O)OP(=O)(O)O)O2)c(=O)nc1N [Triphosphate of β-L-ddeMetCdR]
IC50 [2]: 6200 nM

Nc1nc(=O)n(C2CSC(CO)O2)cc1Br [β-L-2′,3′-dideoxy-3′-thia-5-bromocytidine]
effect with respect to HBV replication, as described in the literature [3]: ineffective or sparingly effective

Nc1nc(=O)n(C2CSC(CO)O2)cc1Cl [β-L-2′,3′-dideoxy-3′-thia-5-chlorocytidine]
effect with respect to HBV replication, as described in the literature [3]: ineffective or sparingly effective

Cc1cn([C@H]2O[C@@H](CO)[C@H](O)[C@H]2O)c(=O)nc1N [β-L-AraMetC, 1-β-L-arabinofuranosyl-5-methylcytosine]
EC50 ([1]; Hepatitis B virus, HepG2 2.2.15, 216 h): > 20000 nM | Cytotoxicity (CD50), concentration resulting in 50% inhibition of proliferation [5]: >2000 | Cytotoxicity (CD50), concentration resulting in 50% inhibition of proliferation [6]: >2000

Cc1cn([C@@H]2CC[C@H](COP(=O)(O)OP(=O)(O)OP(=O)(O)O)O2)c(=O)nc1N [Triphosphate of β-L-ddMetCdR]
IC50 [2]: 6500 nM

Cc1cn([C@@H]2C[C@@H](F)[C@H](CO)O2)c(=O)nc1N [β-L-2′,3′-dideoxy-3′-fluoro-5-methylcytidine]
effect with respect to HBV replication, as described in the literature [3]: ineffective or sparingly effective

Nc1nc(=O)n([C@H]2O[C@@H](CO)[C@H](O)[C@H]2F)cc1Cl [L-FAC1C, β-L-2′-fluoroarabinofuranosyl-5-chlorocytidine]
effect with respect to HBV replication, as described in the literature [3]: ineffective or sparingly effective

Nc1nc(=O)n([C@H]2C[C@H](O)[C@@H](CO)O2)cc1F [FdC, β-L-deoxy-5-fluorocytidine]
effect with respect to HBV replication, as described in the literature [3]: less effective

Cc1cn(C2CSC(CO)O2)c(=O)nc1N [β-L-2′,3′-dideoxy-3′-thia-5-methylcytidine]
effect with respect to HBV replication, as described in the literature [3]: ineffective or sparingly effective

Cc1cn([C@@H]2C=C[C@H](CO)O2)c(=O)nc1N [β-L-ddeMetC, β-L-2′,3′-didehydro-2′,3′-dideoxy-5-methylcytidine]
EC50 [1, 7]: > 20000 nM | Cytotoxicity (CD50), concentration resulting in 50% inhibition of proliferation [5]: 1500 | Cytotoxicity (CD50), concentration resulting in 50% inhibition of proliferation [6]: 600

Cc1cn([C@@H]2C[C@@H](O)[C@H](CO)O2)c(=O)nc1N [β-L-MetCdR, β-L-5-methyldeoxycytidine]
EC50 [1, 7]: 270 to 600 nM | Cytotoxicity (CD50), concentration resulting in 50% inhibition of proliferation [5]: >2000 | Cytotoxicity (CD50), concentration resulting in 50% inhibition of proliferation [6]: >2000

Nc1nc(=O)n([C@H]2O[C@@H](CO)[C@H](O)[C@H]2F)cc1F [L-FAFC, β-L-2′-fluoroarabinofuranosyl-5-fluorocytosine]
effect with respect to HBV replication, as described in the literature [3]: no effect

Nc1nc(=O)n([C@H]2O[C@@H](CO)[C@H](O)[C@H]2F)cc1Br [L-FABrC, β-L-2′-fluoroarabinofuranosyl-5-bromocytosine]
effect with respect to HBV replication, as described in the literature [3]: ineffective or sparingly effective

Nc1nc(=O)n([C@H]2C[C@H](O)[C@@H](CO)O2)cc1Cl [CldC, β-L-deoxy-5-chlorocytidine]
effect with respect to HBV replication, as described in the literature [3]: ineffective or sparingly effective

Cc1cn([C@H]2O[C@@H](COP(=O)(O)OP(=O)(O)OP(=O)(O)O)[C@H](O)[C@H]2O)c(=O)nc1N [Triphosphate of β-L-AraMetC]
IC50 [2]: 10800 nM

Nc1nc(=O)n([C@@H]2C=C[C@H](CO)O2)cc1F [L-FddeC, β-L-2′,3′-dideoxy-2′,3′-didehydro-5-fluorocytidine]
effect with respect to HBV replication, as described in the literature [3]: more effective

Cc1cn([C@@H]2C[C@@H](O)[C@H](COP(=O)(O)OP(=O)(O)OP(=O)(O)O)O2)c(=O)nc1N [Triphosphate of β-L-MetCdR]
IC50 [2]: 900 nM

Nc1nc(=O)n([C@H]2CC[C@@H](CO)O2)cc1F [L-FddC, β-L-2′,3′-dideoxy-5-fluorocytidine]
effect with respect to HBV replication, as described in the literature [3]: equally effective
